In patent US9290485B2, “N-((6-amino-pyridin-3-yl)methyl)-heteroaryl-carboxamides” (NOVARTIS AG, priority 2010, dated 2016):

The compounds below were run against human plasma kallikrein (Homo sapiens (Human), UniProt P03952). Settings: human plasma kallikrein 25 pM, substrate 0.5 uM, 1 hour pre-incubation at room temperature, read at t=60 min.
human plasma kallikrein, sequence (P03952 whole entry, looked up): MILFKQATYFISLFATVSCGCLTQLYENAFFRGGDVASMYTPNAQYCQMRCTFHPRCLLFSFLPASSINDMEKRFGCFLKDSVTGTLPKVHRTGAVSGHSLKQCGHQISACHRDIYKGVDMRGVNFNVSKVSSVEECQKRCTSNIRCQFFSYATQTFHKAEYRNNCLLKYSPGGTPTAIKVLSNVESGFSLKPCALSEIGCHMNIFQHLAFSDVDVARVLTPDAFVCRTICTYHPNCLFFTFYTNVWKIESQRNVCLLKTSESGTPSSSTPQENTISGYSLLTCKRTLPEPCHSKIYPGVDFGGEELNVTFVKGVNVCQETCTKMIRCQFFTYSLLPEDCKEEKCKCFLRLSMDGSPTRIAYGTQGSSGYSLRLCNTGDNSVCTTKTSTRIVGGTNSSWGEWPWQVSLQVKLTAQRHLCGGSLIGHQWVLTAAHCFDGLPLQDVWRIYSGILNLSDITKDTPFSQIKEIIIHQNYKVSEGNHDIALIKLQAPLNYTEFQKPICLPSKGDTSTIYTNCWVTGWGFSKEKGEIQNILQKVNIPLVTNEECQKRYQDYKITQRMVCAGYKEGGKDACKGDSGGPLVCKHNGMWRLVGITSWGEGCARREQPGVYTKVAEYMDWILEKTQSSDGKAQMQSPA
human plasma kallikrein, sequence (P03952 whole entry partner, looked up): as the sequence (P03952 whole entry, looked up) above
Procedure: All other chemicals were of analytical grade.
A stock solution of 0.17 mg/ml deinonized water was stored at −80° C. Enzymatic reactions were conducted in ‘assay buffer’, comprising 50 mM Hepes/NaOH at pH 7.8, 150 mM NaCl, 1 mM EDTA and 0.05% (w/v) CHAPS.
Both, enzyme and substrate were diluted in assay buffer.
All protein and peptide containing solutions were handled in siliconized tubes (Life Systems Design, Merenschwand, Switzerland). […] Plate measurements were conducted by the means of a Safire2 reader (TECAN, Maennedorf, Switzerland). The Safire2 is a monochomator-based instrument and wavelengths of 485 nm and 535 nm were taken for fluorescence excitation and emission acquisition, respectively. The bandwidths were set to 10 nm in both the excitation and the emission path. The fluorescence in each well was excited by three flashes per measurement.
The test compound was dissolved in 90% (v/v) DMSO/water. For the assays, 250 nL of the 90% (v/v) DMSO/water solution or compound solution were added per well, followed by the addition of 12.5 μl protease solution (protease in assay buffer). […] After 1 hour of pre-incubation at room temperature, the reactions were started by the addition of 12.5 μl substrate solution (in assay buffer, final assay concentration was 0.5 uM). After the addition of the substrate solution, the final DMSO concentration in the assay was 0.9% (v/v). […] The IC50 value was calculated from the plot of percentage of inhibition vs. inhibitor concentration by a logistics fit according to the following equation: y=A2+(A1−A2)/(1+(x/IC50)^p) where y is the %-inhibition at the inhibitor concentration, x. A1 is the lowest inhibition value, i.e. 0%, and A2 the maximum inhibition value, i.e. 100%. The exponent, p, is the Hill coefficient. The curve fitting was conducted with the non-linear regression routine of the analysis software Origin 7.55R6 (OriginLab Corporation).
Compound Cc1cc(N)nc(C)c1CNC(=O)c1cn(Cc2ccccc2)nc1C [Example 49, N-((6-amino-2,4-dimethylpyridin-3-yl)methyl)-1-benzyl-3-methyl-1H-pyrazole-4-carboxamide] has an IC50 of 679 nM. In the case of Cc1cc(N)nc(C)c1CNC(=O)c1cc(C)n(C(C)c2ccccc2)c1C (stereo not shown) [Example 51, N-((6-amino-2,4-dimethylpyridin-3-yl)methyl)-2,5-dimethyl-1-(1-phenylethyl)-1H-pyrrole-3-carboxamide], the IC50 is reported as 7000 nM. Cc1cc(N)nc(C)c1CNC(=O)c1cc(S(=O)(=O)N2CCOCC2)c[nH]1 [Example 52, N-((6-amino-2,4-dimethylpyridin-3-yl)methyl)-4-(morpholinosulfonyl)-1H-pyrrole-2-carboxamide] showed an IC50 of 5700 nM. Compound Cc1cc(N)nc(C)c1CNC(=O)c1cn(Cc2c(F)cccc2F)nn1 [Example 53, N-((6-amino-2,4-dimethylpyridin-3-yl)methyl)-1-(2,6-difluorobenzyl)-1H-1,2,3-triazole-4-carboxamide] has an IC50 of 3600 nM. Work on Cc1cc(N)nc(C)c1CNC(=O)c1cn(Cc2cccc(C#N)c2)nn1 [Example 54, N-((6-amino-2,4-dimethylpyridin-3-yl)methyl)-1-(3-cyanobenzyl)-1H-1,2,3-triazole-4-carboxamide] yielded an IC50 of 1800 nM. Cc1cc(N)nc(C)c1CNC(=O)c1sc(Cc2ccccc2)nc1C [Example 55, N-((6-amino-2,4-dimethylpyridin-3-yl)methyl)-2-benzyl-4-methylthiazole-5-carboxamide] showed an IC50 of 6300 nM. Compound Cc1cc(N)nc(C)c1CNC(=O)c1ncn(Cc2ccccc2)n1 [Example 56, N-((6-amino-2,4-dimethylpyridin-3-yl)methyl)-1-benzyl-1H-1,2,4-triazole-3-carboxamide] has an IC50 of 4400 nM. Compound Cc1cncc(Oc2ccc(Cn3cc(C(=O)NCc4c(C)cc(N)nc4C)cn3)cc2)n1 [Example 57, N-((6-amino-2,4-dimethylpyridin-3-yl)methyl)-1-(4-(6-methylpyrazin-2-yloxy)benzyl)-1H-pyrazole-4-carboxamide] has an IC50 of 144 nM. Cc1cc(N)nc(C)c1CNC(=O)c1coc(Cc2ccccc2)n1 [Example 58, N-((6-amino-2,4-dimethylpyridin-3-yl)methyl)-2-benzyloxazole-4-carboxamide] was tested, and the IC50 was 3800 nM. For Cc1cc(N)nc(C)c1CNC(=O)c1ncn(Cc2ccc(Cn3cncn3)cc2)n1 [Example 59], the IC50 was 209 nM. Compound COCCOc1cc(N)nc(C)c1CNC(=O)c1cnn(Cc2ccccc2)c1 [Example 60, N-((6-amino-4-(2-methoxyethoxy)-2-methylpyridin-3-yl)methyl)-1-benzyl-1H-pyrazole-4-carboxamide] has an IC50 of 379 nM. In the case of Cc1cc(N)nc(C)c1CNC(=O)c1ncn(Cc2ccc(-c3ccccc3)cc2)n1 [Example 61, N-((6-amino-2,4-dimethylpyridin-3-yl)methyl)-1-(biphenyl-4-ylmethyl)-1H-1,2,4-triazole-3-carboxamide], the IC50 is reported as 46 nM. With Cc1cc(N)nc(C)c1CNC(=O)c1ncn(Cc2cccc3ccccc23)n1 [Example 62, N-((6-amino-2,4-dimethylpyridin-3-yl)methyl)-1-(naphthalen-1-ylmethyl)-1H-1,2,4-triazole-3-carboxamide] the IC50 was 681 nM. Cc1cc(N)nc(C)c1CNC(=O)c1ncn(Cc2ccc(Oc3ccccc3)cc2)n1 [Example 63, N-((6-amino-2,4-dimethylpyridin-3-yl)methyl)-1-(4-phenoxybenzyl)-1H-1,2,4-triazole-3-carboxamide] showed an IC50 of 11 nM. Cc1cc(N)nc(C)c1CNC(=O)c1ncn(Cc2ccc3ccccc3c2)n1 [Example 64, N-((6-amino-2,4-dimethylpyridin-3-yl)methyl)-1-(naphthalen-2-ylmethyl)-1H-1,2,4-triazole-3-carboxamide] showed an IC50 of 14 nM. Work on Cc1cc(N)nc(C)c1CNC(=O)c1cnn(Cc2ccc(N3CCCC3=O)cc2)c1 [Example 65, N-((6-amino-2,4-dimethylpyridin-3-yl)methyl)-1-(4-(2-oxopyrrolidin-1-yl)benzyl)-1H-pyrazole-4-carboxamide] yielded an IC50 of 29 nM. In the case of Cc1cc(N)nc(C)c1CNC(=O)c1ncn(Cc2ccc(-n3cccn3)cc2)n1 [Example 66, 1-(4-(1H-pyrazol-1-yl)benzyl)-N-((6-amino-2,4-dimethylpyridin-3-yl)methyl)-1H-1,2,4-triazole-3-carboxamide], the IC50 is reported as 325 nM. Work on Cc1cc(N)nc(C)c1CNC(=O)c1ncn(Cc2cccc(-n3cccn3)c2)n1 [Example 67, 1-(3-(1H-pyrazol-1-yl)benzyl)-N-((6-amino-2,4-dimethylpyridin-3-yl)methyl)-1H-1,2,4-triazole-3-carboxamide] yielded an IC50 of 60 nM. For Cc1cc(N)nc(C)c1CNC(=O)c1ncn(Cc2cccc(N3CCCC3)c2)n1 [Example 68, N-((6-amino-2,4-dimethylpyridin-3-yl)methyl)-1-(3-(pyrrolidin-1-yl)benzyl)-1H-1,2,4-triazole-3-carboxamide], the IC50 was 34 nM. In the case of Cc1cc(N)nc(C)c1CNC(=O)c1cnn(Cc2ccnc(N3CCOCC3)c2)c1 [Example 69, N-((6-amino-2,4-dimethylpyridin-3-yl)methyl)-1-((2-morpholinopyridin-4-yl)methyl)-1H-pyrazole-4-carboxamide], the IC50 is reported as 1600 nM. Cc1cc(N)nc(C)c1CNC(=O)c1ccn(Cc2ccccc2)c1 [Example 70, N-((6-amino-2,4-dimethylpyridin-3-yl)methyl)-1-benzyl-1H-pyrrole-3-carboxamide] showed an IC50 of 4100 nM. For COCCc1cccc(Cn2cc(C(=O)NCc3c(C)cc(N)nc3C)cn2)c1 [Example 71, N-((6-amino-2,4-dimethylpyridin-3-yl)methyl)-1-(3-(2-methoxyethyl)benzyl)-1H-pyrazole-4-carboxamide], the IC50 was 190 nM. For Cc1cc(N)nc(C)c1CNC(=O)c1cc(C)n(S(=O)(=O)c2ccccc2)c1C [Example 72, N-((6-amino-2,4-dimethylpyridin-3-yl)methyl)-2,5-dimethyl-1-(Phenylsulfonyl)-1H-pyrrole-3-carboxamide], the IC50 was 937 nM. With COc1cc(Cn2cc(C(=O)NCc3c(C)cc(N)nc3C)cn2)cc(OC)c1 [Example 73, N-((6-amino-2,4-dimethylpyridin-3-yl)methyl)-1-(3,5-dimethoxybenzyl)-1H-pyrazole-4-carboxamide] the IC50 was 114 nM. Cc1cn(S(=O)(=O)c2ccccc2)cc1C(=O)NCc1c(C)cc(N)nc1C [Example 74, N-((6-amino-2,4-dimethylpyridin-3-yl)methyl)-4-methyl-1-(phenylsulfonyl)-1H-pyrrole-3-carboxamide] was tested, and the IC50 was 595 nM. Cc1cc(N)nc(C)c1CNC(=O)c1cnn(Cc2ccc3[nH]c(C)c(C)c3c2)c1 [Example 75, N-((6-amino-2,4-dimethylpyridin-3-yl)methyl)-1-((2,3-dimethyl-1H-indol-5-yl)methyl)-1H-pyrazole-4-carboxamide] gave an IC50 of 3.1 nM. Work on Cc1cn(Cc2ccccc2)cc1C(=O)NCc1c(C)cc(N)nc1C [Example 76, N-((6-amino-2,4-dimethylpyridin-3-yl)methyl)-1-benzyl-4-methyl-1H-pa role-3-carboxamide] yielded an IC50 of 949 nM. For Cc1nc(N)cc(OCC(N)=O)c1CNC(=O)c1cnn(Cc2ccccc2)c1 [Example 77, N-((6-amino-4-(2-amino-2-oxoethoxy)-2-methylpyridin-3-yl)methyl)-1-benzyl-1H-pyrazole-4-carboxamide], the IC50 was 72 nM. Compound Cc1cc(N)nc(C)c1CNC(=O)c1coc(Oc2ccccc2)n1 [Example 78, N-((6-amino-2,4-dimethylpyridin-3-yl)methyl)-2-phenoxyoxazole-4-carboxamide] has an IC50 of 10100 nM. Work on Cc1cc(N)nc(C)c1CNC(=O)c1cnn(Cc2ccc(OC(F)(F)F)cc2)c1 [Example 80, N-((6-amino-2,4-dimethylpyridin-3-yl)methyl)-1-(4-(trifluoromethoxy)benzyl)-1H-pyrazole-4-carboxamide] yielded an IC50 of 117 nM. In the case of Cc1cc(N)nc(C)c1CNC(=O)c1cnn(Cc2cccc(C#N)c2)c1 [Example 81, N-((6-amino-2,4-dimethylpyridin-3-yl)methyl)-1-(3-cyanobenzyl)-1H-pyrazole-4-carboxamide], the IC50 is reported as 411 nM. In the case of Cc1cc(N)nc(C)c1CNC(=O)c1cnn(Cc2ccc(C#N)cc2)c1 [Example 82, N-((6-amino-2,4-dimethylpyridin-3-yl)methyl)-1-(4-cyanobenzyl)-1H-pyrazole-4-carboxamide], the IC50 is reported as 678 nM. Cc1cc(N)nc(C)c1CNC(=O)c1cnn(Cc2ccc3ccccc3c2)c1 [Example 83, N-((6-amino-2,4-dimethylpyridin-3-yl)methyl)-1-(naphthalen-2-ylmethyl)-1H-pyrazole-4-carboxamide] was tested, and the IC50 was 18 nM. Work on Cc1cc(N)nc(C)c1CNC(=O)c1cnn(Cc2cccc(F)c2)c1 [Example 84, N-((6-amino-2,4-dimethylpyridin-3-yl)methyl)-1-(3-fluorobenzyl)-1H-pyrazole-4-carboxamide] yielded an IC50 of 498 nM. Cc1nc(N)ccc1CNC(=O)c1cnn(Cc2ccccc2)c1 [Example 85, N-((6-amino-2-methylpyridin-3-yl)methyl)-1-benzyl-1H-pyrazole-4-carboxamide] was tested, and the IC50 was 4100 nM. Cc1cccc(Cn2cc(C(=O)NCc3c(C)cc(N)nc3C)cn2)n1 [Example 86, N-((6-amino-2,4-dimethylpyridin-3-yl)methyl)-1-((6-methylpyridin-2-yl)methyl)-1H-pyrazole-4-carboxamide] gave an IC50 of 7500 nM. Cc1cc(N)nc(C)c1CNC(=O)c1cnn(Cc2ccccc2Cl)c1 [Example 87, N-((6-amino-2,4-dimethylpyridin-3-yl)methyl)-1-(2-chlorobenzyl)-1H-pyrazole-4-carboxamide] gave an IC50 of 1300 nM. In the case of Cc1cc(N)nc(C)c1CNC(=O)c1cnn(CC2CCCCC2)c1 [Example 88, N-((6-amino-2,4-dimethylpyridin-3-yl)methyl)-1-(cyclohexylmethyl)-1H-pyrazole-4-carboxamide], the IC50 is reported as 1800 nM. For Cc1cc(N)nc(C)c1CNC(=O)c1cnn(Cc2ccc(COc3ccccc3)cc2)c1 [Example 89, N-((6-amino-2,4-dimethylpyridin-3-yl)methyl)-1-(4-(Phenoxymethyl)benzyl)-1H-pyrazole-4-carboxamide], the IC50 was 6 nM. In the case of Cc1cc(N)nc(C)c1CNC(=O)c1cnn(Cc2ccc(F)c(F)c2)c1 [Example 90, N-((6-amino-2,4-dimethylpyridin-3-yl)methyl)-1-(3,4-difluorobenzyl)-1H-pyrazole-4-carboxamide], the IC50 is reported as 2000 nM.
